Data on one molecule can be found in patent publication US20150291597A1, “NOVEL ORALLY BIOAVAILABLE BREATHING CONTROL MODULATING COMPOUNDS, AND METHODS OF USING SAME” (Galleon Pharmaceuticals, Inc., priority 2012, published 2015).

The test system of one series is anesthetized rats. The series can be described thus: Anesthetized rat spirometry screening assay (respiratory rate, tidal volume, minute volume; IV bolus). The format is in vivo. The conditions noted are these: 0.3 mg/kg IV bolus. From the text: Anesthetized rats provide a quick method of screening compounds for respiratory and cardiovascular activity. In contrast to the conscious rat model, this model offers an experimental set up with less variation in the baseline cardiovascular and respiratory measures. Compounds screened in this assay may be examined in a conscious rat model.
Rats were initially anesthetized with 3% isoflurane (inhaled) and femoral artery and vein cannulas were surgically inserted. Once cannulated, the rats were transitioned to urethane anesthesia (1.5 g/kg; i.v.) and a tracheal cut-down was performed. After placing the tracheal cannula, it was connected to a pneumotach to record respiratory airflow from which respiratory rate (RR), tidal volume (VT), and their product minute volume were derived. After the surgical preparation was complete, animals were allowed to stabilize for 30 minutes while respiratory rate, tidal volume, minute volume, blood pressure and heart rate were recorded continuously. Arterial blood gases (ABG) were obtained from arterial blood collected from the femoral artery. ABG measurements were taken before and 6 minutes after vehicle and each dose of compound administered. Compounds being screened were administered via bolus injections through the venous cannula followed by a saline flush (total time of administration is approximately 30 seconds), and the animal was monitored for at least 6 minutes for changes in cardiovascular efforts. Compounds were prepared in formulations identified to ensure optimal solubility. As such, vehicle controls were matched for the formulation of each compound tested. Dosing of the compound being screened was 0.1 and 0.3 mg/kg. The next dose was not administered until all cardiovascular and respiratory measures had returned to baseline levels. The positive control compounds used were N-[4,6-di-(n-propylamino)-[1,3,5]triazin-2-yl]-O,N-dimethyl-hydroxylamine or N-[2,6-di-(n-propylamino)-[1,3]pyrimidin-4-yl]-O,N-dimethyl-hydroxylamine, both administered at the end of each screening experiment (0.3 mg/kg dose) to validate the experiment and also to serve as a measure with which the compound being screened could be compared.
Data were analyzed by collecting cardiovascular and respiratory data in 30 second averages (BINs). Data were plotted 2 minutes before challenge and then 6 minutes after challenge.
FIGS. 2A-2F summarize the effects of individual compounds on peak minute ventilation (increase in VE), overall increase in 2 minute area under the curve (AUC) which is a cumulative measure of effect, along with compound stability (half-life) in rat and human microsomes.

Series [1] can be described thus: Pharmacokinetics and oral bioavailability in the rat (IV and PO dosing, plasma LC-MS/MS). It is filed as in vivo, Sprague-Dawley rats. The conditions noted are these: Sprague-Dawley, oral versus intravenous dosing. The method, then: Sprague-Dawley rats (200-300 g) were fed a standard laboratory rodent diet and housed in individual cages on a 12-hour light and 12-hour dark cycle with room temperature maintained at 22±3° C. and relative humidity at 50±20%. Rats were fasted overnight before dosing, with food returned after the 6 hour blood samples were obtained. Bedding was removed until after the 6 hour blood samples were obtained. Water was provided ad libitum throughout the study.
Dosing solution of test compound was prepared in desired oral formulation for oral administration via gavage needle at 10-30 mg/kg (10 mL/kg) to three or four rats. All blood samples (250 uL per sample) were taken via jugular vein or femoral vein at 0 (predose), 15, and 30 min and 1, 2,4, 6, 8, and 24 h after oral dosing. […]
Plasma samples (incurred study samples, calibration standards, quality controls) were normally prepared as follows. […] Calibration standards were typically prepared in the range of 2 ng/ml to 10 μg/mL for quantitation. […]
All pharmacokinetic parameters were determined based on a non-compartmental approach using WinNonlin software (Pharsight, Version 5.1). The terminal elimination half-life (t1/2) was calculated as ln2/λz using the slope (λz) from linear regression analysis of the terminal phase of the plasma concentration-time curve on a semi-log scale. […]

Take `C#CCNc1nc(NCCC)nc(N(C)OC)n1.Cl` [Compound 5a, O,N-Dimethyl-N-[4-(n-propylamino)-6-(prop-2-ynylamino)-[1,3,5]triazin-2-yl]-hydroxylamine hydrochloride]: in the series with anesthetized rats, the “duration of the increase in minute ventilation” value was “approximately 2 minutes”, the “increase in minute ventilation above baseline values” is listed as “up to 143%”, the “increase in respiratory rate” value is “up to 42%” and the “increase in tidal volume” value is listed as “up to 73%”. The bioavailability in series [1] is 36%.
